Square brackets hold non-standard residues; d marks the D form. Peptide text beside a SMILES is read from it. hArg = N=C(N)NCCCC[C@H](N)C(=O)O; Aib = CC(C)(N)C(=O)O
Experiments:
[1] = Circular dichroism spectroscopy (helical content); type: physicochemical; settings: for [0]222obs × 10^−3, Phos. / [0]222obs × 10^−3, Phos + TFE: 20 μM peptide; for [0]222obs × 10^−3, Phos.: 50 mM phosphate buffer pH 7.4; for [0]222obs × 10^−3, Phos + TFE / helical residues (%), Phos + TFE: 50 mM phosphate buffer with trifluoroethanol (20%); for helical residues (%), Phos + TFE / helical residues (%), Phos.: from elipticity at 222 nM; for helical residues (%), Phos.: 50 mM phosphate buffer
Method: Circular Dichroism. Circular Dichroism spectra were recorded on a Jasco model 710 spectropolarimeter; peptides were analyzed at a concentration of20 μM in 50 mM sodium phosphate buffer pH 7.4, or the same buffer containing 2,2,2-trifluoroethanol at 20% (v/v). Spectroscopic scans were preformed at 20° C. and at wavelengths between […], with data recored at each 1 nM interval. The spectral bandwidth was 1.5 nM and 8 scans were accumulated and averaged for each sample. At each wavelength, the mean residue elipticity [θ×100/l×C×n); where θ is the raw elipticity value (in dimensions of millidegree), l is the sample path length, C=is the molar peptide concentration, and n is the number of residues in the peptide (Bowen, W. P., and Jerman, J. C., Trends in Pharmacol. Sci. 16: 413-417 (1995)). The helical content of each peptide was estimated by dividing [θ] observed at 222 nM for that peptide by −28,100, which is the reported [θ]222obs for a model helical decapeptide (Bowen, W. P., and Jerman, J. C., Trends in Pharmacol. Sci. 16: 413-417 (1995)).
Circular dichroism (CD) spectroscopy was used to analyze the potential effects that the Aib substitutions had on peptide secondary structure when the peptides were free in solution. Samples were analyzed in both aqueous phosphate buffer and in phosphate buffer containing 2,2,2-trifloroethanol, an organic solvent which promotes helical structure in oligopeptides, including PTH peptide fragments (Pellegrini, M., et al., J. Biol. Chem. 273:10420-10427 (1998); Gronwald, W., et al., Biol. Chem. Hoppe Seyler 377:175-186 (1996); Barden, J. A., and Kemp, B. E., Biochemistry 32:7126-7132 (1993)). In phosphate buffer, the helical content of each peptide, estimated from the elipticity observed at 222 nM, was small (≦16%); however, [Aib^1,3,M]PTH(1-14) contained nearly twice as much helix as did [M]PTH(1-14) (16% and 8.1% respectively), as did [Aib^1,3,M]PTH(1-1l), as compared to […] (13% and 7.5% respectively, Table 4). […] The higher helical contents of these two peptides were evident not only from the negative elipticities at […] and 222 nM, but also from the positive elipticities at 192 nM (FIG. 6).

[2] = target: T1, P1R-delNt, truncated human P1R deleted for residues (24-181) (Homo sapiens, UniProt Q03431); test: Competition binding in COS-7 cells expressing hP1R-delNt; settings: for IC50 / Binding IC50: COS-7 cells, hP1R-delNT, tracer 125I-[Aib^1,3,M]PTH(1-21), N.B. = no inhibition of tracer binding
T1 construct: expressed in transfected cells; host or cells: COS-7 (transient, FuGENE 6)
T1 sequence (Q03431 with tags, fused parts or gaps limits assumed): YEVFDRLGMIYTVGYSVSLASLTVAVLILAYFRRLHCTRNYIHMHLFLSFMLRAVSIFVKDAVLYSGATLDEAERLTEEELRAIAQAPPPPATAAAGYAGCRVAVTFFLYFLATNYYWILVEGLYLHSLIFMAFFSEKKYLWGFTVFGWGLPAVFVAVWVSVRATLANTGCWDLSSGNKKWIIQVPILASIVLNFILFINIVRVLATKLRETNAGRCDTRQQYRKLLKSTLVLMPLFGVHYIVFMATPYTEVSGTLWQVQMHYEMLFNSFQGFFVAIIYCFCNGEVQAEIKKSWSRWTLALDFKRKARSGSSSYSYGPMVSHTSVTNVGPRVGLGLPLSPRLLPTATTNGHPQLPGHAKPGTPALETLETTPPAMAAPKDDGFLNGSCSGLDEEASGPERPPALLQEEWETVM

[3] = target: T1, P1R-delNt, truncated human P1R deleted for residues (24-181); test: Stimulation of inositol phosphate production (PLC) in COS-7 cells expressing hP1R-delNt; type: cell-based; settings: for increase in inositol phosphate (IP) production relative to the basal level: P1R-delNt
Method: Cell Culture. The cell line HKRK-B28 (Takasu, H., et al., J. Bone Miner. Res. 14:11-20 (1999)) was derived from the porcine kidney cell line, LLC-PK1 by stable transfection with plasmid DNA encoding the human P1R and expresses ˜280,000 receptors per cell. These cells, as well as COS-7 cells and SaOS-2-B10 cells, were cultured at […] in T-75 flasks ([…]) in Dulbecco's modified Eagle's medium (DMEM) supplemented with fetal bovine serum (10%), penicillin G (20 units/ml), streptomycin sulfate (20 μg/ml) and amphotericin B (0.05 μg/ml) in a humidified atmosphere containing 5% CO2. Stock solutions of EGTA/trypsin and antibiotics were from GIBCO; fetal bovine serum was from Hyclone Laboratories (Logan, Utah). COS-7 cells sub-cultured in 24-well plates were transfected with plasmid DNA (200 ng per well) encoding the wild-type human P1R or truncated human P1R deleted for residues (24-181) (Shimizu, M., et al., J. Biol. Chem. 275:21836-21843 (2000)) that was purified by cesium chloride/ethidium bromide density gradient centrifugation, and FuGENE 6 transfection reagent (Roche Indianapolis Ind.) according to the manufacturer's recommended procedure. All cells, in 24-well plates, were treated with fresh media and shifted to 33° C. for 12 to 24 h prior to assay.
Stimulation of Inositol Phosphate Production. COS-7 cells transfected as above with P1R-WT were treated with serum-free, inositol-free DMEM containing 0.1% bovine serum albumin and [^3H]myo-inositol (NEN, Boston, Mass.) (2 μCi/mL) for 16 h prior to assay. At the time of the assay, the cells were rinsed with binding buffer containing LiCl (30 mM) and treated with the same buffer with or without a PTH analog. The cells were then incubated at 37° C. for 40 min, after which the buffer was removed and replaced by 0.5 mL of ice cold 5% trichloroacetic acid solution. After 3 h on ice, the lysate was collected and extracted twice with ethyl ether. The lysate was then applied to an ion exchange column (0.5 mL resin bed) and the total inositol phosphates were eluted as described previously (Berridge, M. J., et al., Biochem. J. 212:473-482 (1983)), and counted in liquid scintillation cocktail.
Thus, the truncated receptor can couple to the PCL signaling pathway when stimulated with the Aib-containing PTH peptide. […] Thus, the Aib-1,3 substitutions enhance the ligand's capacity to stimulate PLC activity with P1R-WT, as well as with P1R-delNt.

Question: What does the source list for CC[C@H](C)[C@H](NC(=O)[C@H](CCC(=O)O)NC(=O)C(C)(C)NC(=O)[C@@H](NC(=O)C(C)(C)N)C(C)C)C(=O)N[C@@H](CCC(N)=O)C(=O)N[C@@H](CC(C)C)C(=O)N[C@@H](CCSC)C(=O)N[C@@H](Cc1c[nH]cn1)C(=O)N[C@@H](CCC(N)=O)C(=O)N[C@@H](CCCCNC(=N)N)C(N)=O [[Aib^1,3,M]PTH(1-11), AibValAibGluIleGlnLeuMetHisGlnHar] (H-[Aib]V[Aib]EIQLMHQ[hArg]-NH2)?
Answer: [0]222obs × 10^−3, Phos. [1]: −3.7; [0]222obs × 10^−3, Phos + TFE [1]: −16.1; helical residues (%), Phos + TFE [1]: 57%; helical residues (%), Phos. [1]: 13%; IC50 [2]: 13 µM

Question: What does the source list for CC[C@H](C)[C@H](NC(=O)[C@H](CCC(=O)O)NC(=O)[C@H](C)NC(=O)[C@@H](NC(=O)[C@H](C)N)C(C)C)C(=O)N[C@@H](CCC(N)=O)C(=O)N[C@@H](CC(C)C)C(=O)N[C@@H](CCSC)C(=O)N[C@@H](Cc1c[nH]cn1)C(=O)N[C@@H](CCC(N)=O)C(=O)N[C@@H](CCCCNC(=N)N)C(=O)N[C@@H](C)C(=O)N[C@@H](CCCCN)C(=O)N[C@@H](Cc1c[nH]c2ccccc12)C(N)=O [[M]PTH(1-14), [Ala^3,12,Gln^10,Har^11,Trp^14]PTH(1-14)amide, reference compound] (H-AVAEIQLMHQ[hArg]AKW-NH2)?
Answer: [0]222obs × 10^−3, Phos. [1]: −2.3; [0]222obs × 10^−3, Phos + TFE [1]: −11.9; helical residues (%), Phos + TFE [1]: 42%; helical residues (%), Phos. [1]: 8.1%; increase in inositol phosphate (IP) production relative to the basal level [3]: inactive

Question: Which results are given for CC[C@H](C)[C@H](NC(=O)[C@H](CCC(=O)O)NC(=O)C(C)(C)NC(=O)[C@@H](NC(=O)C(C)(C)N)C(C)C)C(=O)N[C@@H](CCC(N)=O)C(=O)N[C@@H](CC(C)C)C(=O)N[C@@H](CCSC)C(=O)N[C@@H](Cc1c[nH]cn1)C(=O)N[C@@H](CCC(N)=O)C(=O)N[C@@H](CCCCNC(=N)N)C(=O)N[C@@H](C)C(=O)N[C@@H](CCCCN)C(=O)N[C@@H](Cc1c[nH]c2ccccc12)C(N)=O [[Aib^1,3,M]PTH(1-14), AibValAibGluIleGlnLeuMetHisGlnHarAlaLysTrp] (H-[Aib]V[Aib]EIQLMHQ[hArg]AKW-NH2)?
Answer: [0]222obs × 10^−3, Phos. [1]: −4.6; [0]222obs × 10^−3, Phos + TFE [1]: −15.7; helical residues (%), Phos + TFE [1]: 56%; helical residues (%), Phos. [1]: 16%; increase in inositol phosphate (IP) production relative to the basal level [3]: ~3 fold; PLC EMAX(obs.) ([3]; hP1R-delNT): 3.1 ± 0.2 foldxbasal; EC50 ([3]; hP1R-delNT, dash = no PLC response observed): 0.13 ± 0.03 µM; Binding IC50 [2]: effectively inhibited the binding; IC50 [2]: ~1.5 µM; binding affinity, fold stronger than [M]PTH(1-14) ([2]; P1R-delNt): ~10 fold; difference in affinity between [Aib^1,3,M]PTH(1-14) and [Aib^1,3,M]PTH(1-21) ([2]; P1R-delNt): 50 fold

Question: Which “[0]222obs × 10^−3, Phos.” value [1] does the source give for “H-AVSEIQLMHNLGKH-NH2 [PTH(1-14), reference compound]” here?
Answer: −2.6

Question: And the “[0]222obs × 10^−3, Phos + TFE” value [1]?
Answer: −10.6

Question: What about the “helical residues (%), Phos + TFE” value [1] of the same compound?
Answer: 38%

Question: What about the “helical residues (%), Phos.” value [1] of the same compound?
Answer: 9.1%

Question: What about the “Binding IC50” value [2] of the same compound?
Answer: N.B.

Question: What about the “Binding IC50” value ([2]; listed as native PTH(1-14)) of the same compound?
Answer: failed to inhibit tracer binding

Question: For CCCC[C@H](NC(=O)[C@H](CCCNC(=N)N)NC(=O)[C@H](CCC(=O)O)NC(=O)[C@@H](NC(=O)[C@H](CO)NC(=O)[C@H](C)NC(=O)[C@H](CC(C)C)NC(=O)[C@H](Cc1c[nH]cn1)NC(=O)[C@H](CCCCN)NC(=O)CNC(=O)[C@H](CC(C)C)NC(=O)[C@H](CC(N)=O)NC(=O)[C@H](Cc1c[nH]cn1)NC(=O)[C@H](CCCC)NC(=O)[C@H](CC(C)C)NC(=O)[C@H](CCC(N)=O)NC(=O)[C@@H](NC(=O)[C@H](CCC(=O)O)NC(=O)[C@H](CO)NC(=O)[C@@H](NC(=O)[C@H](C)N)C(C)C)[C@@H](C)CC)C(C)C)C(=O)N[C@@H](CCC(N)=O)C(=O)N[C@@H](Cc1c[nH]c2ccccc12)C(=O)N[C@@H](CC(C)C)C(=O)N[C@@H](CCCNC(=N)N)C(=O)N[C@@H](CCCCN)C(=O)N[C@@H](CCCCN)C(=O)N[C@@H](CC(C)C)C(=O)N[C@@H](CCC(N)=O)C(=O)N[C@@H](CC(=O)O)C(=O)N[C@H](C(=O)N[C@@H](Cc1c[nH]cn1)C(=O)N[C@@H](CC(N)=O)C(=O)N[C@@H](Cc1ccc(O)cc1)C(N)=O)C(C)C [PTH(1-34), [Nle^8,21, Tyr^34]PTH(1-34)amide, reference compound], which “increase in inositol phosphate (IP) production relative to the basal level” value [3] is on record?
Answer: inactive

Question: What about the “Binding IC50” value [2] of the same compound?
Answer: N.B.

Question: With CC[C@H](C)[C@H](NC(=O)[C@H](CCC(=O)O)NC(=O)C(C)(C)NC(=O)[C@@H](NC(=O)C(C)(C)N)C(C)C)C(=O)N[C@@H](CCC(N)=O)C(=O)N[C@@H](CC(C)C)C(=O)N[C@@H](CCSC)C(=O)N[C@@H](Cc1c[nH]cn1)C(=O)N[C@@H](CCC(N)=O)C(N)=O [[Aib^1,3,M]PTH(1-10), [Aib^1,3,Gln^10]PTH(1-10)] (H-[Aib]V[Aib]EIQLMHQ-NH2) as the compound, how does the “[0]222obs × 10^−3, Phos.” value [1] read?
Answer: −3.2

Question: And the “[0]222obs × 10^−3, Phos + TFE” value [1]?
Answer: −13.1

Question: What about the “helical residues (%), Phos + TFE” value [1] of the same compound?
Answer: approximately 47%

Question: What about the “helical residues (%), Phos + TFE” value ([1]; M]PTH(1-10)) of the same compound?
Answer: 47%

Question: What about the “helical residues (%), Phos.” value [1] of the same compound?
Answer: 11%

Question: What about the “Binding IC50” value [2] of the same compound?
Answer: N.B.

Source: patent publication US7572765B2, “Conformationally constrained parathyroid hormone (PTH) analogs” (The General Hospital Corporation, priority 2001, dated 2009)
